Test results as given in US20110130460A1, “INCREASED CREATINE RETENTION WITH SOLUBLE FIBRES” (priority 2007, published 2011).

Columns and labels:
[1] = Urinary creatine and creatinine excretion after a single 2 g creatine dose; details: whatever the form, excretion slightly less than 1 g/24 h
Description: (§1) The health status questionnaire was filled in again.
An aliquot (10 mL) was stored at −20° C.

[2] = Plasma creatine kinetics after a single 2 g creatine dose (one-open compartmental model); assay type: in vivo, human
Description: as §1
(§2) Venous blood was collected on heparin as an anticoagulant. The tubes were placed immediately on ice and centrifuged at 3000 g for 6 min at 4° C. Plasma (900 μL) was deproteinized with sulfosalicylic acid 5% (300 μL) and centrifuged again at 3000 g for 6min. NaOH 0.1M (90 μL) was added to supernatant (300 μL) to obtain a pH value of about 7.8. Samples were stored at −20° C.
(§3) An aliquot (10 mL) was stored at −20° C. […] An aliquot was stored at −80° C.
Using a Marquardt algorithm, all kinetics were fitted with the following equation:
C(FD/V*(ka/(ka−kel))*(exp(−kel*(t−tlag))−exp(−ka*(t−tlag)))) (equation 1)
where C is the plasma creatine concentration minus the basal concentration (μM) • if C 0, then data were removed • F is the bioavailability • D is the dose (2 g or 15 300 μmol) • is the volume of distribution • ka is the velocity constant of absorption (first order, h^−1) • kel is the velocity constant of elimination (first order, h^−1) • t is the time (h) • tlag is the lag-time (h)
This equation corresponds to a one-open compartmental model in which ka, kel and tlag are the primary parameters. Knowing their value, new kinetic parameters of plasma creatine were calculated:
AUCO,∞:the area under the curve integrated from zero to infinity
Since the bioavailability (F) may not be measured, only the apparent volume of distribution and the apparent clearance can be estimated:
Vd: the apparent volume of distribution (Vd=V/F, L)
C: the apparent clearance (Cl=Kel·Vd, L.h^−1)

[3] = Plasma and erythrocyte creatine and creatinine after one week creatine supplementation (3×2 g per day); assay type: in vivo, human
Description: as §1, §2
After the first centrifugation, erythrocytes were washed twice with a similar volume of physiological water (0.9% NaCl, centrifugation: 1000 g, 5 min, 4° C.). After three frozen and defrozen procedures, erythrocytes (300 μL) were deproteinized with sulfosalicylic acid 5% (600 μL) and then centrifuged at 3000 g during 6 min. Supernatant was collected and centrifuged again. The clear supernatant was neutralized with NaOH 0.1M.
as §3

[4] = Creatine and creatinine in 24 h feces by HPLC; assay type: in vivo, human; details: basal or supplemented, could not be quantified
Description: as §1, §3
Both creatine and creatinine content in feces was analyzed by HPLC at 205 nm. After dilution of a feces aliquot in 0.045M ammonium sulfate containing an internal standard (4-[2-aminoethyl]-benzene sulfonamide), the sample was filtered on a 10 kDa membrane. The following conditions were used to identify creatine: 2 Beckman RP-C18 Ultrasphere ODS columns 5μ 25 cm*4.6 mm; elution: A/B (70/30) with 0.05% anhydrous trifluoroacetic acid (TFA) at 1.0 mL/min; A: 0.1% H3PO4 in deionised H2O; B: 1.4 mg sodium dodecylsulfate/mL acetonitril. […] The values reported for creatine in the results section correspond to highest possible estimates including a probable overestimation.

[5] = Questionnaire on side effects after creatine supplementation; assay type: in vivo, human; details: after each period of one week creatine supplementation vs initial visit
Source text: as §1

[6] = 21 g/d creatine for 2 weeks; levels within the normal range; cited from earlier work

Q: Which “Creatinine urinary excretion, effect of creatine ingestion” value [1] does the source give for CN(CC(=O)O)C(=N)N [creatine] here?
A: Its value is “not affected”.

Q: And the “apparent volume of distribution relative to body mass” value ([2]; after ingestion of 2 g creatine, not influenced by the form ingested)?
A: The value was “about 75 % of body mass”.

Q: And the “change of plasma creatinine concentration after single dose” value ([2]; eight hours following ingestion of 2 g creatine, independent of treatment, basal 53.5±1.50 μM)?
A: Its value is “changed by only a few μM”.

Q: What about the half-life ([2]; human, plasma, oral, after ingestion of 2 g creatine, mean over the forms, read-out: mean half-life of elimination (converted)) of the same molecule?
A: Its half-life is 1.09 ± 0.06 h.

Q: And the “erythrocyte creatinine concentration during the experiment” value ([3]; basal about 25 μM)?
A: The value was “remained stable”.

Q: And the “plasma creatine concentration after supplementation, fold higher” value ([3]; one week, 3×2 g per day, fasted state, post vs pre)?
A: Its value is 11±2.5 fold.

Q: What about the “increase of erythrocyte creatine concentration after supplementation” value ([3]; one week, 3×2 g per day, independent of the form ingested) of the same molecule?
A: Its value is 88±22%.

Q: And the “maximal estimated value of creatine in feces” value [4]?
A: Its value is no more than 50±5.7 μg per gram fresh feces.

Q: What about the “frequency of declared health troubles (side effects)” value [5] of the same molecule?
A: The value was “No difference was observed in the frequency of declared health troubles except for muscle cramps which were less frequently reported”.

Q: What about the “excretion of methylamine and formaldehyde” value [6] of the same molecule?
A: The value was “increased excretion of methylamine and formaldehyde”.
